# Experimental data as given in US6488952B1, “Semisolid therapeutic delivery system and combination semisolid, multiparticulate, therapeutic delivery system” (priority 2001, dated 2002).
# What was measured:
# [1] = Incorporation of BCNU into GMO gel without disruption of the three-dimensional structure; assay type: physicochemical; settings: physiologic temperature
# Description: The drug, such as BCNU, releases from the semisolid through diffusion, conceivably in a biphasic manner. A first phase involves, for example, a lipophilic drug contained within the lipophilic membrane diffuses therefrom into the aqueous channel 15. The second phase involves diffusion of the drug from the aqueous channel 15 into the external environment. Being lipophilic, BCNU orients itself inside the GMO gel within its proposed lipid bi-layer structure. Thus, incorporating greater than approximately 7.5% BCNU by weight into GMO causes a loss of the integrity of the three-dimensional structure whereby the gel system no longer maintains the semisolid cubic phase, and reverts to the viscous lamellar phase liquid.
# It is possible to incorporate approximately 7.5% BCNU by weight into GMO gel at physiologic temperature without disruption of the normal three-dimensional structure. In addition, an average glioma tumor measures approximately 3 centimeters in diameter and equates to approximately 14 cubic centimeters in volume. As a result, approximately 11.5 to 12.0 grams of GMO gel may be implanted into the resection pocket. This equates to a possible drug dosage of approximately 900 milligrams with maximal drug. As stated earlier, the clinically recommended dose of BCNU delivered by Gliadel® Wafers to date is approximately 65 milligrams.
# [2] = Miscibility of GMS in H2O; assay type: physicochemical
# Description: It is recognized that alternative semisolids, modified formulations and methods of production exist such that the lipophilic nature of the semisolid can be altered, or in the alternative, the aqueous channels 15 contained within the semisolid can be altered. Thus, various therapeutic agents in varying concentrations may diffuse from the semisolid at differing rates, or be released therefrom over time via the aqueous channels 15 of the semisolid. Hydrophilic substances may be utilized to alter semisolid consistency or drug release by alteration of viscosity, fluidity, surface tension or the polarity of the aqueous component. […] However, because GMS is a surfactant, GMS is miscible in H2O up to approximately 20% weight/weight. For purposes of this disclosure, the term “surfactant” means surface active agent, thus being miscible in H2O in limited concentrations as well as polar substances. Upon heating and stirring, the 80% H2O/20% GMS combination produces a spreadable paste having a consistency resembling hand lotion.
miscibility in H2O [2] [% weight/weight],SMILES,BCNU incorporated into GMO gel without disruption of the normal three-dimensional structure [1]
–,"O=NN(CCCl)C(=O)NCCCl [BCNU, 1,3-bis[2-chloroethyl]-1-nitrosourea]",approximately 7.5 % by weight
≤ 20,"CCCCCCCCCCCCCCCCCC(=O)OCC(O)CO (centres unmarked) [GMS, glyceryl monostearate]",–
